The target of one test is T1, RIPK1 kinase (Homo sapiens, UniProt Q13546).
T1 construct: purchased Promega VA7593
T1 sequence (Q13546 1-671): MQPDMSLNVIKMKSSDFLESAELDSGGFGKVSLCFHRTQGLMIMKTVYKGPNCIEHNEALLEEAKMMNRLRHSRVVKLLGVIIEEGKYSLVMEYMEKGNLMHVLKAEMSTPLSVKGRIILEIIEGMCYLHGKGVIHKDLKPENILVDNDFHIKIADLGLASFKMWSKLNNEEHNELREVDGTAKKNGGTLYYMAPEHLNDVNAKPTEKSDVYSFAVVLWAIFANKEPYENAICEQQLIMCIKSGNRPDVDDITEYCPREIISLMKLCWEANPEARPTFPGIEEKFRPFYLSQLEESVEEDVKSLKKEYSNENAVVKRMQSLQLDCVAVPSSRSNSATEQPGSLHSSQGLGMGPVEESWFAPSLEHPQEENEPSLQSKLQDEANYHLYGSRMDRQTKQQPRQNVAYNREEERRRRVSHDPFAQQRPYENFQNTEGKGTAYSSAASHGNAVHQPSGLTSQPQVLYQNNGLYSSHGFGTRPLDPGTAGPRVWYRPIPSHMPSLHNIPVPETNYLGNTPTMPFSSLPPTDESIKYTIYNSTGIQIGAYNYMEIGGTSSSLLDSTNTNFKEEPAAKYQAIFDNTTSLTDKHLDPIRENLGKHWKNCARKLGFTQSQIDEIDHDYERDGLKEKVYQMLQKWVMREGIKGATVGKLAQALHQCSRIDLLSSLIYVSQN
As to the kind of experiment: In vitro RIPK1 kinase activity assay (ADP-Glo), inhibition by compounds at 1 μM. The conditions noted are these: compound 1 μM; ATP 10 μM; MBP substrate 100 μg/mL; read-out: RIPK1 kinase activity inhibition rate range. Format: biochemical. The procedure: RIPK1 kinase activity was assayed using the ADP-Glo assay and RIPK1 kinase reaction system (Promega, catalog number: VA7593). The RIPK1 kinase activity assay was performed according to the Promega kit manual.
The experimental method was briefly described as below. The concentration of RIPK1 kinase in the RIPK1 kinase reaction system was determined by kinase titration and S/B10. Compounds were diluted with 1× kinase buffer D (1% DMSO), and 1 μL of 100 μM compound DMSO stock solution was added to 19 μL 1× kinase buffer D. RIPK1 kinase was diluted with 1× kinase buffer D. 2.5×ATP/substrate was diluted with 1× kinase buffer D. The final concentration of ATP in the kinase reaction system was 10 μM, and the final concentration of MBP substrate was 100 μg/mL. 1 μL of diluted compound and 2 μL of diluted RIPK1 kinase were mixed, incubated at room temperature for 15 minutes, 2 μL of 2.5×ATP/substrate was added, mixed, and incubated at room temperature for 1 hour. 5 μL of ADP-Glo reagent was added to each well and incubated at room temperature for 1 hour. 10 μL of ADP detection reagent was added to each well and incubated at room temperature for another 0.5-1 hour. The chemiluminescent signal was read by a microplate reader and the inhibition rate of kinase activity was calculated.

In test [1] the test system is U937 cells. As to the kind of experiment: Inhibition rate of compound (1 μM) on necroptosis of U937 cells (TSZ-induced, CellTiter-Glo). It is filed as cell-based. The conditions noted are these: TSZ (hTNF-α, SM-164, Z-VAD-FMK) 20 hours. As to the method: (§1) The biological activity of RIPK1 inhibitors was further evaluated in the inhibition of necroptosis in U937 cells. U937 cell line was purchased from Huatuo Biotechnology and stored in liquid nitrogen. U937 cells were revived before the experiment and cultured in RPMI-1640 medium (supplemented with 10% fetal bovine serum, 100 U/mL penicillin and 100 μg/mL streptomycin) at 37° C., 5% CO2. The activity was further evaluated by the cellular ATP level detected by the Promega CellTiter-Glo 2.0 Assay cell viability assay kit (Catalog No.: G9242).
The experimental method was briefly described as below. U937 cells in the logarithmic growth phase were collected by centrifugation. Cells were diluted at the density of 5×10^5 cells/mL with RPMI 1640 medium (supplemented with 10% fetal bovine serum, 100 U/mL penicillin and 100 μg/mL streptomycin). The cell suspension was added to a white sterile 384-well cell culture plate at 15 μL/well. The test compound was dissolved in DMSO to prepare a 10 mM stock solution and diluted to 10 μM with culture medium. At the same time, a control with the same DMSO volume was set up. Two replicates were added for each concentration. The diluted compound was added to the 384-well cell culture plate containing cells at 2.5 µL/well and incubated at 37° C., 5% CO2 for 15 minutes. Z-VAD-FMK (Biyuntian, catalog number: C1202-5 mg) was dissolved in DMSO to prepare a 20 mM stock solution. SM-164 (Biyuntian, catalog number: SC0114-10 mM) was dissolved in DMSO to prepare a 10 mM stock solution and diluted to 0.1 mM. hTNF-α (Sino Biological Inc., catalog number: 10602-HNAE) was dissolved in sterile water to 10 μg/mL. RPMI 1640 medium (supplemented with 10% fetal bovine serum, 100 U/mL penicillin and 100 μg/mL streptomycin) was used to prepare the TSZ mixture, containing 133.3 μM Z-VAD-FMK, 33.3 ng/ml hTNF-α and 0.3 μM SM-164. After 15 minutes' coculture of compounds and cells, 7.5 μL of TSZ mixture was added to each well, mixed evenly, and cultured at 37° C., 5% CO2 for 20 hours. After 20 hours, the culture plate was removed and placed at room temperature for 30 minutes. 10 μL of CellTiter-Glo reagent pre-equilibrated at room temperature was added to each well and incubated for 10 minutes from light. The chemiluminescence was read by a microplate reader. The inhibition rate was calculated as Inh %=(1−(no TSZ-TSZ & compound)/(no TSZ-TSZ))×100.

Test [2] deals with U937 cells. As to the kind of experiment: EC50 of necroptosis inhibition in U937 cells (TSZ-induced, CellTiter-Glo). Format: cell-based. To be noted: Homo sapiens, U-937; TSZ (hTNF-α, SM-164, Z-VAD-FMK) 20 hours; 10 concentration points; read-out: EC50 intervals of necroptosis inhibition in U937 cells. As to the method: as §1
The experimental method was briefly described as below. U937 cells in the logarithmic growth phase were collected by centrifugation. Cells were diluted to the cell density of 5×10^5 cells/mL with RPMI 1640 medium (supplemented with 10% fetal bovine serum, 100 U/mL penicillin and 100 μg/mL streptomycin). Cell suspension was added to a white sterile 384-well cell culture plate at 15 μL/well. The test compound was dissolved in DMSO to prepare a 10 mM stock solution. The compound was serially diluted with culture medium at a ratio of 1:3, for a total of 10 concentration points. A control with the same DMSO volume was set, with two replicates for each concentration. The diluted compound was added to the 384-well cell culture plate containing cells at 2.5 μL/well and incubated at 37° C., 5% CO2 for 15 minutes. Z-VAD-FMK (Biyuntian, catalog number: C1202-5 mg) was dissolved in DMSO to prepare a 20 mM stock solution. SM-164 (Biyuntian, catalog number: SC0114-10 mM) was dissolved in DMSO to prepare a 10 mM stock solution and diluted to 0.1 mM. hTNF-α (Sino Biological Inc., catalog number: 10602-HNAE) was dissolved in sterile water to 10 μg/mL. RPMI 1640 medium (supplemented with 10% fetal bovine serum, 100 U/mL penicillin and 100 μg/mL streptomycin) was used to prepare the TSZ mixture, containing 133.3 μM Z-VAD-FMK, 33.3 ng/ml hTNF-α and 0.3 μM SM-164. After 15 minutes' coculture of compounds and cells, 7.5 μL of TSZ mixture was added to each well, mixed evenly, and cultured at 37° C., 5% CO2 for 20 hours. After 20 hours, the culture plate was removed and placed at room temperature for 30 minutes. Then, 10 μL of CellTiter-Glo reagent pre-equilibrated at room temperature was added to each well and incubated. After 10 minutes' incubation at room temperature in the dark, the chemiluminescence were measured using a microplate reader. The inhibition rate was calculated as Inh %=(1−(no TSZ-TSZ & compound)/(no TSZ-TSZ))×100. The EC50 was obtained by fitting the nonlinear regression curve log [inhibitor] vs. response−variable slope (four parameters) in GraphPad Prism.

For the compound `COc1ccc2c(c1)N(C)C(=O)[C@@H](NC(=O)C(=O)NCCc1ccccc1)CO2` [Example 8, (S)—N^1-(7-methoxy-5-methyl-4-oxo-2,3,4,5-tetrahydrobenzo[b][1,4]oxazepin-3-yl)-N^2-phenethyloxalamide], the inhibition at 1 µM at RIPK1 kinase is at least 75%. Besides, in the test with U937 cells [1], the “Inhibition rate range of compounds (1 μM) on U937 cell necroptosis” value (shortened to “Inhibition rate range of compounds”) is on record as “A (A: ≥90%)”. In addition, the EC50 with U937 cells [2] was in the range of 100 to 500 nM.
Take `C=CCOc1ccc2c(c1)N(C)C(=O)[C@@H](NC(=O)C(=O)NCCc1ccccc1)CO2` [Example 9, (S)—N^1-(7-(allyloxy)-5-methyl-4-oxo-2,3,4,5-tetrahydrobenzo[b][1,4]oxazepin-3-yl)-N^2-phenethyl oxalamide]: the inhibition at 1 µM on RIPK1 kinase was at least 75%. Besides, the “Inhibition rate range of compounds” value with U937 cells [1] is reported as “A (A: ≥90%)”. Further, in the test on U937 cells [2], the EC50 was 100 to 500 nM.
On to `C#CCOc1ccc2c(c1)N(C)C(=O)[C@@H](NC(=O)C(=O)NCCc1ccccc1)CO2` [Example 10, (S)—N^1-(5-methyl-4-oxo-7-(prop-2-yn-1-yloxy)-2,3,4,5-tetrahydrobenzo[b][1,4]oxazepin-3-yl)-N^2-phenethyloxalamide], for which the inhibition at 1 µM at RIPK1 kinase is at least 75%. In addition, the “Inhibition rate range of compounds” value in the test on U937 cells [1] is “A (A: ≥90%)”. In addition, the EC50 in the test with U937 cells [2] fell in the range of 100 to 500 nM.
On the same counts, the results for `Cc1cccc(/C=C/c2ccc3c(c2)N(C)C(=O)[C@@H](NC(=O)C(=O)NCCc2ccccc2)CO3)c1` [Example 11, (S,E)-N^1-(5-methyl-7-(3-methylstyryl)-4-oxo-2,3,4,5-tetrahydrobenzo[b][1,4]oxazepin-3-yl)-N^2-phenethyloxalamide] are at least 75%, “A (A: ≥90%)” and under 100 nM.
On the same counts, the results for `CN1C(=O)[C@@H](NC(=O)C(=O)NCCc2ccccc2)COc2ccc(C#Cc3ccncc3)cc21` [Example 12, (S)-N^1-(5-methyl-4-oxo-7-(pyridin-4-ylethynyl)-2,3,4,5-tetrahydrobenzo[b][1,4]oxazepin-3-yl)-N^2-phenethyloxalamide] are at least 75%, “A (A: ≥90%)” and under 100 nM.
As to `CN1C(=O)[C@@H](NC(=O)C(=O)NCCc2ccccc2)COc2ccc(C#Cc3ccccn3)cc21` [Example 14, (S)—N^1-(5-methyl-4-oxo-7-(pyridin-2-ylethynyl)-2,3,4,5-tetrahydrobenzo[b][1,4]oxazepin-3-yl)-N^2-phenethyloxalamide], the inhibition at 1 µM on RIPK1 kinase is at least 75%. In the test on U937 cells [1], the “Inhibition rate range of compounds” value is reported as “A (A: ≥90%)”. Moreover, the EC50 in the test with U937 cells [2] is under 100 nM.
As for `CN1C(=O)[C@@H](NC(=O)C(=O)NCCc2ccccc2)COc2ccc(C#Cc3cncnc3)cc21` [Example 15, (S)—N^1-(5-methyl-4-oxo-7-(pyrimidin-5-ylethynyl)-2,3,4,5-tetrahydrobenzo[b][1,4]oxazepin-3-yl)-N^2-phenethyloxalamide], on RIPK1 kinase, the inhibition at 1 µM was at least 75%. In addition, in the test with U937 cells [1], the “Inhibition rate range of compounds” value is reported as “A (A: ≥90%)”. In addition, the EC50 with U937 cells [2] is under 100 nM.
On the same counts, the results for `CN1C(=O)[C@@H](NC(=O)C(=O)NCCc2ccccc2)COc2ccc(C#Cc3cccs3)cc21` [Example 16, (S)—N^1-(5-methyl-4-oxo-7-(thiophen-2-ylethynyl)-2,3,4,5-tetrahydrobenzo[b][1,4]oxazepin-3-yl)-N^2-phenethyloxalamide] are 50 to 74%, “A (A: ≥90%)” and under 100 nM.
On the same counts, the results for `C#Cc1ccc2c(c1)N(C)C(=O)[C@@H](NC(=O)C(=O)NCCc1ccccc1)CO2` [Example 20, (S)—N^1-(7-ethynyl-5-methyl-4-oxo-2,3,4,5-tetrahydrobenzo[b][1,4]oxazepin-3-yl)-N^2-phenethyloxalamide] are 50 to 74%, “A (A: ≥90%)” and under 100 nM.
On the same counts, the results for `CN1C(=O)[C@@H](NC(=O)C(=O)NCCc2ccccc2)COc2ccc(C#CC3CCNCC3)cc21` [Example 23, (S)—N^1-(5-methyl-4-oxo-7-(piperidin-4-ylethynyl)-2,3,4,5-tetrahydrobenzo[b][1,4]oxazepin-3-yl)-N^2-phenethyloxalamide] are 50 to 74%, “A (A: ≥90%)” and under 100 nM.

The record behind these values is patent publication US20250368633A1, “AZEPINE FUSED RING COMPOUND AS RIPK1 INHIBITOR AND USE THEREOF” (ARTIVILA BIOPHARMA, priority 2022, published 2025).
